Reference: patent US6039950A, “Pharmaceutical grade saw palmetto” (priority 1997, dated 2000)
Values joined by “and” are separate entries in the source; they are usually repeats but may differ in a detail not shown here. Identical values can stand only once. Like-named read-outs stand apart in the source and are kept apart here. Numbered stars: 1 amine (or outer) side, 2 acyl side, 3 side chain; on linkers, the order of the positions; unused ones are H or OH. Bridge positions count the residues as written; N and C are the ends. Square brackets hold non-standard residues; d marks the D form. Peptide text beside a SMILES is read from it. I, II: the chains in the order shown. Actinocin(9to1) = Cc1c2oc3c(C)ccc(C(=O)[*:1])c3nc-2c(C(=O)[*:2])c(N)c1=O; NMeV = CN[C@H](C(=O)O)C(C)C; Sar = CNCC(=O)O

What was measured:
smooth muscle = details: cited from earlier work
Cyclooxygenase-1 = molecular target: T1, Cyclooxygenase-1 (Ovis aries, UniProt P05979); experiment: biochemical; assay type: biochemical, ram; details: for Cox1 activity: screened at 3×10^-4 M
T1 construct: Cyclooxygenase-1 (from ram seminal vesicles); from tissue; host or cells: ram seminal vesicles; assay by Panlabs
T1 sequence (P05979 25-600): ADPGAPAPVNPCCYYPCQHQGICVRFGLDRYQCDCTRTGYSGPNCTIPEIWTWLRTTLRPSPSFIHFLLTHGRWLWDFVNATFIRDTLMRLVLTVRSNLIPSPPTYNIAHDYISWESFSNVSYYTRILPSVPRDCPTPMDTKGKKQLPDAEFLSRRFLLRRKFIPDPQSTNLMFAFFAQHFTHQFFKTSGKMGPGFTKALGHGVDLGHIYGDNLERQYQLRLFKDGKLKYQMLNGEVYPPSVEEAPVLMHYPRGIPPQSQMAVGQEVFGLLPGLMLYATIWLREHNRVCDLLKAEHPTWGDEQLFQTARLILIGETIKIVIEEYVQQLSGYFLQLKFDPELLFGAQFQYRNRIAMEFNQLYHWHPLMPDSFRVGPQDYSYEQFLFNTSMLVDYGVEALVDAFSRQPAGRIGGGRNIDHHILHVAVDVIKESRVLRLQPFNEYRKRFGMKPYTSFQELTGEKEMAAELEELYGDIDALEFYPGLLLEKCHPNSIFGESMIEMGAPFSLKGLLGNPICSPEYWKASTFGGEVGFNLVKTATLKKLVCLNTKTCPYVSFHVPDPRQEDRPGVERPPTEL
Method: The reaction was initiated by addition of arachidonic acid (100 mM) and terminated after 20 minutes incubation at 37° C. by addition of trichloroacetic acid (TCA).

5-lipoxygenase = molecular target: T2, 5-lipoxygenase (Rattus norvegicus, UniProt P12527); experiment: biochemical; details: for 5-Lipo activity: screened at 3×10^-5 (30 μM)
T2 sequence (P12527 1-673): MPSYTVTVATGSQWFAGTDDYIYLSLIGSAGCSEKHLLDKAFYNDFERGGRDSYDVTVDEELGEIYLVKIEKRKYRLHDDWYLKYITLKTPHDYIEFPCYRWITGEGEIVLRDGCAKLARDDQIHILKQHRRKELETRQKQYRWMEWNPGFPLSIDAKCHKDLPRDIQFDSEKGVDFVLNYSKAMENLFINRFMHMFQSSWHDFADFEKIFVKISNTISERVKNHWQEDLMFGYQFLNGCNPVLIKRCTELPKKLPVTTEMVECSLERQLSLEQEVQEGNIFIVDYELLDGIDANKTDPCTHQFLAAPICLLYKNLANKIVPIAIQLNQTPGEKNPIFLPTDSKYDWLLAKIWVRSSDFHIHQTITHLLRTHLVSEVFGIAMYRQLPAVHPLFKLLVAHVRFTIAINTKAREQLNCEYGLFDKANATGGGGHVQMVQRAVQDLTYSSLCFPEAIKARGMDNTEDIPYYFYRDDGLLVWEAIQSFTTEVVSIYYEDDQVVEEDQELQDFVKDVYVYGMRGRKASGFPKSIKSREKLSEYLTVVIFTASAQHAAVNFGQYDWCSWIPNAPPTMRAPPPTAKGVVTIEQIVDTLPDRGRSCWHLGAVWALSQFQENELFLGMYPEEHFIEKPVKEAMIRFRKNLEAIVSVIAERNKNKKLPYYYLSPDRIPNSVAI
Method: The procedure was as follows. 5-lipoxygenase assays were run using a crude enzyme preparation from rat basophilic leukemia cells (RBL-1). Test compounds were pre-incubated with the enzyme for 5 minutes at room temperature and the reaction was initiated by addition of substrate (arachidonic acid). Following an 8 minute incubation at room temperature, the reaction was terminated by addition of citric acid, and levels of 5-HETE were determined by 5-HETE radioimmunoassay (RIA).
Compounds and fractions were screened at an initial concentration of 3×10^-5.

Cyclooxygenase-2 = molecular target: T3, Cyclooxygenase-2 (Ovis aries, UniProt P79208); experiment: biochemical; assay type: biochemical, sheep
T3 construct: Cyclooxygenase-2 (from sheep placenta); from tissue; host or cells: sheep placenta; assay by Panlabs
T3 sequence (P79208 17-603): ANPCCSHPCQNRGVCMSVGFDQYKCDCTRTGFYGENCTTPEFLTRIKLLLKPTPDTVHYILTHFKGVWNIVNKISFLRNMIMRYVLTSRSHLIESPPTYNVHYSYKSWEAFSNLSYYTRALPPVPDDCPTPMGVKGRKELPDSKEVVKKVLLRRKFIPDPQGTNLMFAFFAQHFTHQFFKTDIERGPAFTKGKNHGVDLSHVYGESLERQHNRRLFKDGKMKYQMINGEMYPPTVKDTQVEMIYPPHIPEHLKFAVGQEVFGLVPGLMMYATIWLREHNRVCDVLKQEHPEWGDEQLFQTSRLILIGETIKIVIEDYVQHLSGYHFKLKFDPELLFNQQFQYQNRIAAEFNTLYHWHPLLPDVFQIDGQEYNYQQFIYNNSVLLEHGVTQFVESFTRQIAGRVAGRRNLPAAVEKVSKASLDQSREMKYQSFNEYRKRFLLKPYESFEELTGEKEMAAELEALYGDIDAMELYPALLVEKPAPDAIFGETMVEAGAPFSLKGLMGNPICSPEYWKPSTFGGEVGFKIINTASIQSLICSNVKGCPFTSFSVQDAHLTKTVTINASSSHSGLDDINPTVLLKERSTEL
Method: The reaction is initiated by addition of arachidonic acid (100 mM) and terminated after 20 minutes incubation at 37° C. by addition of TCA.

Type 2 5α-reductase = details: cited from earlier work
Type 1 5α-reductase = details: cited from earlier work
[1] = molecular target: T4, rat prostatic androgen receptor (Rattus norvegicus, UniProt P15207); experiment: Rat prostatic nuclear androgen receptor binding assay against 3H-dihydrotestosterone
T4 construct: the ventral prostates were rapidly removed and placed in ice-cold "homogenization buffer"; from tissue; host or cells: washed nuclear suspension of ventral prostate from testosterone-treated male rats (Harlan)
T4 sequence (P15207 1-902): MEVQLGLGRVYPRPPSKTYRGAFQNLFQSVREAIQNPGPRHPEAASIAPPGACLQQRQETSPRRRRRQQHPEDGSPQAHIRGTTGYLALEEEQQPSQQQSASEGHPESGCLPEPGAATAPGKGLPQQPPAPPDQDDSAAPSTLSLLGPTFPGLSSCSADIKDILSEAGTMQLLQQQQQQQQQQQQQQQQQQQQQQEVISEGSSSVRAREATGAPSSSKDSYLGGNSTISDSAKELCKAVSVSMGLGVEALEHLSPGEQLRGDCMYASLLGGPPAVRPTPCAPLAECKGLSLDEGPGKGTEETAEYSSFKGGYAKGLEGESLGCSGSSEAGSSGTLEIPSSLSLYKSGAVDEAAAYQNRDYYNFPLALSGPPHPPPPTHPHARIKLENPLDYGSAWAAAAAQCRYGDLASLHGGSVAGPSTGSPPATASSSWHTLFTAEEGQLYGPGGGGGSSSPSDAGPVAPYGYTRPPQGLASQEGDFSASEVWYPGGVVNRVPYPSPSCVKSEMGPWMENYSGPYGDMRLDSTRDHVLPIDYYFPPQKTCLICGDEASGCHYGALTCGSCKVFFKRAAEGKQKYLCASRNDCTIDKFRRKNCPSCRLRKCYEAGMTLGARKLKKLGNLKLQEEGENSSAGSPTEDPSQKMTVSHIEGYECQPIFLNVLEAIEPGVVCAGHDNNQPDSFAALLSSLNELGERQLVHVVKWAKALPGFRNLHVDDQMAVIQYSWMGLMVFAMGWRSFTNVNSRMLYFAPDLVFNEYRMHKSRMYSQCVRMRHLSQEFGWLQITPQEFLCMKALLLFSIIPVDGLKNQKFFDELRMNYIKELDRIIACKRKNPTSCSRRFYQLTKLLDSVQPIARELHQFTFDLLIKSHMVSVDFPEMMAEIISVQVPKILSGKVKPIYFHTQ
Method: Rats were fed with Purina chow and tap water, ad libitum.
General chemicals (reagent grade), free fatty acids, fatty acid ethyl esters and radioinert steroids were obtained from Sigma Chemical Company (St. Louis, Mo.). ^3 H-dihydrotestosterone (5α-androstan-17β-ol-3-one; 60 Ci/mmol) was purchased from NEN Life Science Products (Boston, Mass.). 100% ethanol was used throughout for the preparations of all inhibitors and radioinert chemicals.
The animals were treated intraperitoneally with testosterone (400 μg/100 g body wt). […] The homogenate was centrifuged at 800×g for 20 minutes at 4° C. […] The resuspended pellet was homogenized on ice using a glass Dounce homogenizer until suspension became uniform.
Non-specific binding was determined using radioinert dihydrotestosterone (10^-5 M) in place of the inhibitor. The test tubes were incubated for 20 hours at 15° C.
After an overnight incubation, 1 ml of ice-cold nuclear buffer was added followed by centrifugation at 800×g for 10 minutes at 4° C. The nuclear pellets were washed 3 times by resuspension in 1 ml of the same ice-cold nuclear buffer, with mixing and centrifugation as above. After discarding the final supernatant, 1 ml of 100% ethanol was added to each pellet and then vortexed. Test tubes were placed in a 30° C. water bath for 40 minutes, with vortexing every 10 minutes and a final centrifugation at 800 g for 10 minutes. The ethanol extracts were decanted into vials containing 4 ml of scintillation fluid (Ecoscint A), shaken and counted.
The results, expressed as percent inhibition of ^3 H-Dihydrotestosterone binding, at two concentrations of putative active components, of the rat prostatic androgen receptor assay are below.

[2] = Table 8, read-out: Cyclooxygenase-1 IC50 (Table 8)
[3] = Table 8, read-out: Cyclooxygenase-2 IC50 (Table 8)
[4] = read-out: Testosterone affinity, Km
[5] = Table 8, read-out: 5 Lipoxygenase IC50 (Table 8)

Row | SMILES | effect on relaxant effect of Sabal extracts (smooth muscle) | IC50 (Cyclooxygenase-1; [2]) | Cox1 activity (Cyclooxygenase-1) | 5-Lipo activity (5-lipoxygenase) | Cox2 activity (Cyclooxygenase-2) | other results
1 | NCCCC(N)(C(=O)O)C(F)F (stereo not shown) [a-difluoromethyl-ornithine] | not modified |  |  |  |  | 
2 | CCCCCCCCCCCCCC(=O)O [Myristic Acid] |  | > 300 µM | Negative | Negative | Negative | IC50 (5-lipoxygenase): > 30 µM; IC50 (Cyclooxygenase-2; [3]): > 300 µM
3 | CC(C)NC[C@H](O)COc1cccc2ccccc12 [L-propranolol] | potentiated |  |  |  |  | 
4 | C[C@]12CC[C@H]3[C@@H](CCC4=CC(=O)CC[C@@]43C)[C@@H]1CC[C@@H]2O [testosterone] |  |  |  |  |  | Testosterone, Vmax (Type 2 5α-reductase): 57.6 nmoles/10^6 cells/min; Km (Type 2 5α-reductase; [4]): 0.5 µM; Testosterone, Vmax (Type 1 5α-reductase): 4.2 nmoles/10^6 cells/min; Km (Type 1 5α-reductase; [4]): 2.9 µM
5 | CCCCCCCCCCCCCCCC(=O)O [Palmitic Acid] |  | > 300 µM | Negative | Negative | Negative | IC50 (5-lipoxygenase; [5]): > 30 µM; IC50 (Cyclooxygenase-2; [3]): > 300 µM
6 | CC(C)NC[C@@H](O)COc1cccc2ccccc12 [R-propranolol] | inactive |  |  |  |  | 
7 | CCCCCCCCCCCCCC(=O)OCC [Myristic Ester, ethyl myristate] |  |  | Negative | Negative | Negative | 
8 | C[C@@H]1C[C@@H]([C@H](O)CC2CC(=O)NC(=O)C2)C(=O)[C@@H](C)C1 [Cycloheximide] | antagonized |  |  |  |  | 
9 | O=C1CCN(c2ccccc2)N1 [phenidone, reference compound] |  |  |  |  |  | IC50 (5-lipoxygenase; reference compound, read-out: IC50, reference compounds, 5-lipoxygenase): 30 µM
10 | CCCCCCCCCCCCCCCC(=O)OCC [Ethyl Palmitate] |  | > 300 µM | Negative | Negative | Negative | IC50 (5-lipoxygenase; [5]): > 30 µM; IC50 (Cyclooxygenase-2; [3]): > 300 µM
11 | CCCCCCCC/C=C\CCCCCCCC(=O)OCC [Ethyl Oleate] |  | > 300 µM | Negative | Negative | Negative | IC50 (5-lipoxygenase): > 30 µM; IC50 (Cyclooxygenase-2): > 300 µM
12 | CC/C=C\C/C=C\C/C=C\CCCCCCCC(=O)OCC [Ethyl linolenate] |  | > 300 µM | Negative | Negative | Negative | IC50 (5-lipoxygenase; [5]): > 30 µM; IC50 (Cyclooxygenase-2; [3]): > 300 µM
13 | O=c1c(-c2ccc(O)cc2)coc2cc(O)cc(O)c12 [genistein] | not modified |  |  |  |  | 
14 | C/C(=C\CO)CCC[C@H](C)CCC[C@H](C)CCCC(C)C [Phytol] |  |  |  |  |  | % Inh, individual experiment ([1]; 1.00E-04 M): 87.0% and 64% and 97% and 8.0% and 31% and 29% and 33%; % Inh, individual experiment ([1]; 1.00E-05 M): 0.0% and 76% and 10% and 4.0% and 26% and 38% and 41%; % Inh, Mean ([1]; 1.00E-05 M, SE 10.1): 32.0%; % Inh, individual experiment ([1]; 1.00E-06 M): 82.0% and 88% and 81% and 31% and 25% and 3.0% and 7.0%; % Inh, Mean ([1]; 1.00E-06 M, SE 14.12): 31.0%; % Inh, individual experiment ([1]; 3.00E-05 M): 89.0% and 90% and 32% and 25% and 9.0% and 20% and 21%; % Inh, Mean ([1]; 3.00E-05 M, SE 12.8): 28.5%; % Inh, individual experiment ([1]; 3.00E-06 M): 65% and 0.0% and 9.0% and 73%; % Inh, Mean ([1]; 3.00E-06 M, SE 12.5): 9.0%; % Inh, individual experiment ([1]; 3.00E-07 M): 14.0% and 2.0% and 0.0%; % Inh, Mean ([1]; 3.00E-07 M, SE 4.3): 2.0%; IC50 ([1]; Table 4, marker compounds, read-out: Androgen Receptor IC50 (Table 4)): 10 µM; inhibition at 10 µM ([1]; at 10 μM): 50%; IC50 ([1]; read-out: androgen receptor assay IC50): 10 µM
15 | Cc1c2oc3c(C)ccc(C(=O)N[C@@H]4C(=O)N[C@H](C(C)C)C(=O)N5CCC[C@H]5C(=O)N(C)CC(=O)N(C)[C@@H](C(C)C)C(=O)O[C@@H]4C)c3nc-2c(C(=O)N[C@@H]2C(=O)N[C@H](C(C)C)C(=O)N3CCC[C@H]3C(=O)N(C)CC(=O)N(C)[C@@H](C(C)C)C(=O)O[C@@H]2C)c(N)c1=O [actinomycin D] (I: T[dV]P[Sar][NMeV] / II: T[dV]P[Sar][NMeV]; ester I:1-I:C, II:1-II:C; linker I:N-II:N via Actinocin(9to1)) | antagonized the effect of the total lipidic extract without modifying that of the saponifiable extract |  |  |  |  | 
16 | CC[C@H](CC[C@@H](C)[C@H]1CC[C@H]2[C@@H]3CC=C4C[C@@H](O)CC[C@]4(C)[C@H]3CC[C@]12C)C(C)C [β-sitosterol] |  |  |  |  |  | IC50 (Cyclooxygenase-1): > 300 µM; IC50 (5-lipoxygenase): > 30 µM; IC50 (Cyclooxygenase-2): > 300 µM
17 | CCCCCCCC/C=C\CCCCCCCC(=O)O [Oleic Acid] |  | > 300 µM | Negative | Negative | Negative | IC50 (5-lipoxygenase; [5]): > 30 µM; IC50 (Cyclooxygenase-2): > 300 µM
18 | CCCCC/C=C\C/C=C\CCCCCCCC(=O)OCC [Ethyl linoleate, ethyl linoleate] |  | > 300 µM | Negative | Negative | Negative | IC50 (5-lipoxygenase; [5]): > 30 µM; IC50 (Cyclooxygenase-2; [3]): > 300 µM
